The nature of test [1]: Stimulation of insulin secretion in rat INS-1E cells after 1 hr by alphaLISA assay in presence of 5 mM glucose relative to IBMX. It is filed as functional.
Test [2] has as its system INS-1E. In words: (§1) Stimulation of insulin secretion in rat INS-1E cells after 1 hr by alphaLISA assay in presence of 0.1 mM glucose. Type of test: functional, cell-based. For orientation: In Alpha technology, singlet oxygen from a donor bead excites a nearby acceptor bead.
The nature of test [3]: Stimulation of insulin secretion in rat INS-1E cells after 1 hr by alphaLISA assay in presence of 5 mM glucose. Type of test: functional, cell-based.
The subject of test [4] is Pancreatic islet. The experiment in a line: Stimulation of insulin secretion in rat pancreatic islets at 3 uM in presence of 11 mM glucose. It is filed as functional.
Test [5] has as its system Pancreatic islet. In words: Stimulation of insulin secretion in rat pancreatic islets at 3 uM in presence of 3 mM glucose. Type of test: functional.
A short description of test [6]: as §1. It is filed as functional, cell-based.
Test [7] deals with Pancreatic islet. In words: Stimulation of insulin secretion in rat pancreatic islets in presence of 11 mM glucose. Type of test: functional.
Test [8] can be described thus: Stimulation of insulin secretion in rat INS-1E cells after 1 hr by alphaLISA assay in presence of 0.1 mM glucose relative to IBMX. It is filed as functional.

The source made the active and inactive calls. No cut-off for these calls is given here. Bounds are passed on as bounds.

In the case of `N=C1N[C@@H](c2ccc(F)cc2)C[C@H]2CC[C@H](CCc3ccccc3)N12`, the maximal effect (Emax) in test [1] is 26%. The outcome in test [2] was inactive. For the same compound, in test [3], the EC50 came out at 4.04 µM.

`Cc1ccc([C@H]2C[C@H]3CC[C@H](CCc4ccccc4)N3C(=N)N2)cc1` (mixture of isomers): the maximal effect (Emax) in test [1] was determined as 40%. The outcome in test [2] was inactive. Further, in test [3], the EC50 amounted to 1 µM.

In the case of `Cc1cc(C)c(Nc2ccc(CC[C@H]3CC[C@@H]4C[C@H](c5ccccc5)NC(=N)N34)cc2)c(C)c1`, the outcome in test [2] was inactive. The EC50 in test [3] is more than 33 µM.

Turning to `Cc1ccccc1[C@H]1C[C@H]2CC[C@H](CCc3ccccc3)N2C(=N)N1`, the Emax in test [1] stood at 59%. In addition, the result in test [2] and in test [5] was inactive. For the same compound, the result in test [4] was Active. Moreover, in test [3], the EC50 worked out at 1.01 µM.

With `N=C(NCc1ccccc1)N1CCCC1CCc1ccccc1` (centres undefined), the Emax in test [1] was found to be 84%. Also, the outcome in test [2] was inactive. In addition, in test [3], the concentration giving a half-maximal response (EC50) was 2.47 µM.

Take `N=C1N[C@@H](c2ccccc2)C[C@H]2CC[C@H](c3ccc(-c4ccccc4)cc3)N12`: the result in test [2] was inactive. The concentration for a half-maximal effect (EC50) in test [3] is more than 33 µM.

In the case of `N=C1N[C@@H](c2ccccc2)C[C@H]2CCCN12` (mixture of isomers), the outcome in test [2] was inactive. Besides, in test [3], the EC50 was more than 33 µM.

Regarding `N=C1N[C@@H](c2ccccc2Br)C[C@H]2CC[C@H](CCc3ccccc3)N12` (mixture of isomers), the maximal effect (Emax) in test [1] was determined as 52%. For the same compound, the outcome in test [2] was inactive. The EC50 in test [3] turned out to be 0.67 µM.

As for `Cc1cc(C)c(Nc2ccccc2CC[C@H]2CC[C@@H]3C[C@H](c4ccccc4)NC(=N)N23)c(C)c1`, the maximal response (Emax) in test [1] was determined as 54%. Also, in test [2], the outcome was inactive. Also, the EC50 in test [3] was found to be 1.37 µM.

Take `CN1C(=N)N2[C@@H](CCc3ccccc3)CC[C@@H]2C[C@@H]1c1ccccc1`: the Emax in test [1] is 29%. In addition, the result in test [2] was inactive. The EC50 in test [3] was found to be 0.67 µM.

`N=C1N[C@@H](c2ccc(Br)cc2)C[C@H]2CC[C@H](CCc3ccccc3)N12`: the Emax in test [1] worked out at 23%. For the same compound, in test [2], the outcome was inactive. Also, in test [3], the 50% effective concentration (EC50) is 0.63 µM.

Regarding `CC(C)(C)OC(=O)/N=C1\N[C@@H](c2ccccc2)C[C@H]2CC[C@H](CCc3ccccc3)N12`, in test [2], the result was inactive. The EC50 in test [3] was more than 33 µM.

Turning to `Cc1cc(C)c(Nc2cccc(CC[C@H]3CC[C@@H]4C[C@H](c5ccccc5)NC(=N)N34)c2)c(C)c1`, the result in test [2] was inactive. Further, the EC50 in test [3] was more than 33 µM.

On to `N=C1N[C@@H](C2CCCCC2)C[C@H]2CC[C@H](CCc3ccccc3)N12`, for which the maximal response (Emax) in test [1] is 40%. Also, in test [2], the outcome was inactive. Further, in test [3], the EC50 stood at 0.75 µM.

`N=C(N)N1C(CCc2ccccc2)CCC1CCc1ccccc1` (mixture of isomers): the maximal response (Emax) in test [1] worked out at 29%. Also, the result in test [2] was inactive. For the same compound, in test [3], the EC50 is 4.87 µM.

With `C[C@@H]1[C@H]2CC[C@H](CCc3ccccc3)N2C(=N)N[C@H]1c1ccccc1`, the maximum response (Emax) in test [1] is 27%. Moreover, the EC50 in test [6] is more than 33 µM; in test [3] it was 1.3 µM. In addition, in test [7], the result was Active.

In the case of `N=C1N[C@@H](c2ccccc2)C[C@H]2CC[C@H](CCc3cccc(Br)c3)N12`, the maximum response (Emax) in test [1] worked out at 26%. The outcome in test [2] was inactive. For the same compound, the EC50 in test [3] was found to be 0.45 µM.

With `N=C(N)N1C(CCc2ccccc2)CCC1Cc1ccccc1` (mixture of isomers), the Emax in test [1] was 56%. In addition, the result in test [2] was inactive. The concentration giving a half-maximal response (EC50) in test [3] amounted to 5.74 µM.

Turning to `Cc1cccc([C@H]2C[C@H]3CC[C@H](CCc4ccccc4)N3C(=N)N2)c1` (mixture of isomers), in test [1], the maximal response (Emax) turned out to be 20%. The result in test [2] was inactive. The EC50 in test [3] was 1.1 µM.

Regarding `N=C1N[C@@H](c2ccccc2)C[C@H]2CC[C@H](COc3ccccc3)N12`, in test [2], the result was inactive. In addition, in test [3], the concentration for a half-maximal effect (EC50) is more than 33 µM.

For `N=C1N[C@@H](c2ccccc2)C[C@H]2CC[C@H](c3ccccc3)N12`, the outcome in test [2] was inactive. Also, in test [3], the EC50 was more than 33 µM.

For the compound `CC(=O)Nc1ccc([C@H]2C[C@H]3CC[C@H](CCc4ccccc4)N3C(=N)N2)cc1`, the outcome in test [2] was inactive. The EC50 in test [3] is more than 33 µM.

As to `N=C(N)N1C(Sc2ccccc2)CCC1c1ccccc1` (mixture of isomers), in test [1], the maximum response (Emax) was determined as 54%. In test [2], the result was inactive. Moreover, the EC50 in test [3] stood at 5.03 µM.

Turning to `COc1cccc([C@H]2C[C@H]3CC[C@H](CCc4ccccc4)N3C(=N)N2)c1` (mixture of isomers), the maximal response (Emax) in test [1] is 21%. Moreover, in test [2], the outcome was inactive. Besides, in test [3], the EC50 was 0.76 µM.

As to `N=C1NC(c2ccccc2)CCN1CCCc1ccccc1` (centres undefined), the maximal effect (Emax) in test [1] was determined as 39%. The outcome in test [2] was inactive. In addition, the half-maximal effective concentration (EC50) in test [3] was 4.79 µM.

As to `N=C1NCC[C@H]2CC[C@H](CCc3ccccc3)N12`, in test [2], the outcome was inactive. Besides, the EC50 in test [3] is more than 33 µM.

For the compound `N=C1N[C@@H](c2ccccc2)C[C@H]2CC[C@H](CCc3ccccc3)N12`, in test [1], the maximal response (Emax) is 34%. In addition, the EC50 in test [6] was more than 33 µM; in test [3] it was 1.25 µM.

With `N=C1N[C@@H](c2cccc(Br)c2)C[C@H]2CC[C@H](CCc3ccccc3)N12`, the maximum response (Emax) in test [1] is 22%. For the same compound, in test [2], the outcome was inactive. Further, the concentration giving a half-maximal response (EC50) in test [3] is 1.01 µM.

`CCC[C@H]1CC[C@@H]2C[C@H](c3ccccc3)NC(=N)N12`: the Emax in test [1] came to 55%. The outcome in test [2] was inactive. Moreover, the half-maximal effective concentration (EC50) in test [3] was determined as 11.1 µM.

Take `COc1ccc(Cl)cc1C(=O)NCCc1ccc(S(=O)(=O)NC(=O)NC2CCCCC2)cc1` [GLYBURIDE]: the Emax amounted to 50% in test [1] and 17% in test [8]. Also, the results for the EC50 in test [6] and in test [3] were 0.007 µM and 0.003 µM, respectively.

Take `O=C1N[C@@H](c2ccccc2)C[C@H]2CC[C@H](CCc3ccccc3)N12`: the result in test [2] was inactive. Moreover, the EC50 in test [3] was more than 33 µM.

Regarding `N=C1N[C@@H](c2ccccc2)C[C@H]2CC[C@H](CCc3ccncc3)N12`, in test [2], the outcome was inactive. In addition, in test [3], the half-maximal effective concentration (EC50) was more than 33 µM.

With `C/C=C/[C@H]1C[C@H]2CC[C@H](CCc3ccccc3)N2C(=N)N1`, the maximal response (Emax) in test [1] is 21%. The EC50 in test [6] is more than 33 µM; in test [3] it was 1.45 µM.

For `N=C1N[C@@H](c2ccccc2)C[C@H]2CC[C@H](CCCc3ccccc3)N12` (mixture of isomers), the Emax in test [1] is 31%. The result in test [2] was inactive. In test [3], the EC50 was determined as 0.83 µM.

On to `N=C(N)N1C(CCc2ccccc2)CCC1Sc1ccccc1` (centres undefined), for which the maximum response (Emax) in test [1] amounted to 62%. The result in test [2] was inactive. For the same compound, in test [3], the EC50 is 1.33 µM.

On to `N=C1N[C@@H](c2ccc(C(F)(F)F)cc2)C[C@H]2CC[C@H](CCc3ccccc3)N12`, for which the outcome in test [2] was inactive. For the same compound, the EC50 in test [3] was more than 33 µM.

With `N=C1N[C@@H](c2ccc(C(=O)O)cc2)C[C@H]2CC[C@H](CCc3ccccc3)N12`, the result in test [2] was inactive. In addition, the half-maximal effective concentration (EC50) in test [3] is more than 33 µM.

For the compound `Cn1cc(CC[C@H]2CC[C@@H]3C[C@H](c4ccccc4)NC(=N)N23)cn1`, the result in test [2] was inactive. Also, in test [3], the EC50 was more than 33 µM.

Regarding `N=C1N[C@@H](c2ccccc2)C[C@H]2CC[C@H](Cc3ccccc3)N12`, in test [1], the Emax is 52%. Besides, the outcome in test [2] was inactive. Also, the concentration for a half-maximal effect (EC50) in test [3] amounted to 4.74 µM.

`N=C1N[C@H](c2ccccc2)C[C@H]2CC[C@H](CCc3ccccc3)N12`: the maximum response (Emax) in test [1] amounted to 21%. The EC50 in test [3] was 2.74 µM.

One may read the Emax as the maximal effect, on the per cent scale that the assay sets. As usually defined, the EC50 is the midpoint of the concentration-response curve.

The values are drawn from ChEMBL document CHEMBL3112502, “The insulin secretory action of novel polycyclic guanidines: discovery through open innovation phenotypic screening, and exploration of structure-activity relationships” (Bioorg Med Chem Lett, 2014).
